This note sets out measurements from BindingDB's records for doi:10.7270/Q2N301S8 (D3R/Abbott, 2020).

Structures are written as SMILES.

In the experiment the target is Beta-secretase 1 (Homo sapiens, UniProt P56817). The experiment is described as follows: D3R2027.
Beta-secretase 1, sequence (P56817 whole entry): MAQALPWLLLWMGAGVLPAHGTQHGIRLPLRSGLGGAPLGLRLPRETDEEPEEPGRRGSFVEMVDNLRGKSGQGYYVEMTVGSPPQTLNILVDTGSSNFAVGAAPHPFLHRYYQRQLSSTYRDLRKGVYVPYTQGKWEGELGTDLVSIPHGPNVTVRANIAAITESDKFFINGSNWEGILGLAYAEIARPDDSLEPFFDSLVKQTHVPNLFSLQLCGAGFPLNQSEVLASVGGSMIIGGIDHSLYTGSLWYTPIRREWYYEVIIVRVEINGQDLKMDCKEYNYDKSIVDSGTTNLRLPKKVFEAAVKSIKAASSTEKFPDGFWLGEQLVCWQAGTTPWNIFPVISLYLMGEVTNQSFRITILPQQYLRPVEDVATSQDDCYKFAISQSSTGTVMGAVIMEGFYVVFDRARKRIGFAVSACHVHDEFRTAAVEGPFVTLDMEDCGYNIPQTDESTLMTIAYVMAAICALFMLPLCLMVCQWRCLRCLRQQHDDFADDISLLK
Source text: D3R2027
Compound `CCCCNC(=O)[C@H](C)C[C@H](O)[C@@H]1Cc2cccc(c2)OCCCCCC(=O)N[C@@H](C)C(=O)N1` [BACE_153] had an IC50 of 690 nM. The same measure for `CCCCNC(=O)[C@H](C)C[C@H](O)[C@@H]1Cc2cccc(c2)CCCCCNc2cc(cc(OC)n2)C(=O)N1` [BACE_154]: 130 nM; for `CCCCNC(=O)[C@H](C)C[C@H](O)[C@@H]1Cc2cccc(c2)CCCCNc2cc(cc(C)n2)C(=O)N1` [BACE_155]: 240 nM; for `CCCCNC(=O)[C@H](C)C[C@H](O)[C@@H]1Cc2cccc(c2)OCCCCS(=O)(=O)C[C@@H](C)C(=O)N1` [BACE_156]: 110 nM. In the case of `CCCCNC(=O)[C@H](C)C[C@H](O)[C@@H]1Cc2ccc(O)c(c2)Cc2ccccc2OCC(=O)N[C@@H](C)C(=O)N1` [BACE_157], the IC50 was 120 nM. The same measure for `CCCCNC(=O)[C@H](C)C[C@H](O)[C@@H]1Cc2ccc(O)c(c2)Cc2ccccc2OCCCCC(=O)N1` [BACE_158]: 4000 nM.

One may read the IC50 as the point on the concentration scale where inhibition reaches its midpoint. A lower IC50 goes with greater potency in that assay.
